# Columns and labels:
# Test in all cases: relative viability (nuclei count vs DMSO), 5 days (fraction); higher = more cells survive
# [1] = compound: CN(C)C/C=C/C(=O)Nc1cc2c(Nc3ccc(F)c(Cl)c3)ncnc2cc1O[C@H]1CCOC1 [Afatinib] + CC(=O)c1c(C)c2cnc(Nc3ccc(N4CCNCC4)cn3)nc2n(C2CCCC2)c1=O [Palbociclib] (partner 0.5 µM)
# Procedure, shortened: (§1)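 Lung cancer cell lines in 1536-well plates got either a single drug or a fixed anchor-drug dose together with five library-drug doses (not always all listed) in √10 steps, by pin tool, on the day after seeding. Nuclei were counted after 5 days, and relative viability is the treated-to-vehicle ratio of nuclei counts. Values are medians of duplicate plates.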
# [2] = compound: CN(C)C/C=C/C(=O)Nc1cc2c(Nc3ccc(F)c(Cl)c3)ncnc2cc1O[C@H]1CCOC1 [Afatinib] + Cc1nc(NC(=O)N2CCC[C@H]2C(N)=O)sc1-c1ccnc(C(C)(C)C(F)(F)F)c1 [Alpelisib] (partner 2 µM)
# Procedure, shortened: as §1
# [3] = compound: CN(C)C/C=C/C(=O)Nc1cc2c(Nc3ccc(F)c(Cl)c3)ncnc2cc1O[C@H]1CCOC1 [Afatinib] + Nc1nc2[nH]cc(CCc3ccc(C(=O)N[C@@H](CCC(=O)O)C(=O)O)cc3)c2c(=O)[nH]1 [Pemetrexed] (partner 0.2 µM)
# Procedure, shortened: as §1
# [4] = compound: CN(C)C/C=C/C(=O)Nc1cc2c(Nc3ccc(F)c(Cl)c3)ncnc2cc1O[C@H]1CCOC1 [Afatinib] + O=C(c1cc(Cc2n[nH]c(=O)c3ccccc23)ccc1F)N1CCN(C(=O)C2CC2)CC1 [Olaparib] (partner 8 µM)
# Procedure, shortened: as §1
Cell Line,relative viability ([1]; first compound 0.005 µM),relative viability ([1]; first compound 0.01581 µM),relative viability ([1]; first compound 0.05 µM),relative viability ([1]; first compound 0.1581 µM),relative viability ([1]; first compound 0.5 µM),relative viability ([2]; first compound 0.005 µM),relative viability ([2]; first compound 0.01581 µM),relative viability ([2]; first compound 0.05 µM),relative viability ([2]; first compound 0.5 µM),relative viability ([3]; first compound 0.005 µM),relative viability ([3]; first compound 0.01581 µM),relative viability ([3]; first compound 0.05 µM),relative viability ([3]; first compound 0.1581 µM),relative viability ([3]; first compound 0.5 µM),relative viability ([4]; first compound 0.005 µM),relative viability ([4]; first compound 0.01581 µM),relative viability ([4]; first compound 0.05 µM),relative viability ([4]; first compound 0.1581 µM),relative viability ([4]; first compound 0.5 µM),relative viability ([2]; first compound 0.1581 µM)
NCI-H2228,0.884,0.774,0.705,0.749,0.744,0.74,0.78,0.688,0.589,0.283,0.306,0.334,0.298,0.322,0.935,0.518,0.704,0.506,0.579,
NCI-H2347,0.415,0.446,0.445,0.418,0.432,1.11,0.979,1.1,0.889,0.401,0.414,0.426,0.45,0.392,0.571,0.699,0.595,0.566,0.578,1.1
NCI-H2405,0.555,0.562,0.57,0.513,0.508,0.703,0.804,0.875,0.913,1.09,1.14,1.12,1.01,0.953,0.885,0.934,0.864,0.874,0.852,0.708
NCI-H3122,0.179,0.184,0.174,0.182,0.187,0.81,0.685,0.716,0.705,0.206,0.196,0.199,0.187,0.187,0.619,0.628,0.57,0.632,0.68,0.738
PC-3 [JPC-3],0.484,0.444,0.441,0.362,0.397,0.49,0.392,0.377,0.354,0.514,0.384,0.462,0.414,0.431,0.608,0.453,0.472,0.456,0.476,0.362
PC-14,0.0841,0.0837,0.079,0.0664,0.0642,0.169,0.15,0.137,0.163,0.155,0.155,0.164,0.165,0.149,0.193,0.19,0.139,0.12,0.134,0.127
RERF-LC-KJ,1.05,1.02,0.984,0.85,0.825,0.784,0.636,0.601,0.502,0.466,0.442,0.484,0.481,0.453,0.851,0.86,0.906,0.865,0.828,0.572
SK-LU-1,0.355,0.416,0.413,0.396,0.4,1.38,0.918,1.06,0.913,0.967,0.816,1.03,0.948,0.969,0.49,0.447,0.414,0.492,0.452,1.1
SK-MES-1,0.305,0.289,0.306,0.257,0.257,0.823,0.653,0.396,0.32,0.386,0.707,0.472,0.438,0.434,0.682,0.489,0.325,0.334,0.404,0.309
SW 1573,0.451,0.364,0.404,0.306,0.362,0.778,0.805,0.805,0.668,0.747,0.852,0.86,0.769,0.861,0.624,0.485,0.486,0.421,0.408,0.811
UMC-11,0.355,0.325,0.283,0.308,0.325,1,1.03,0.953,1.13,0.892,0.814,0.846,0.738,0.722,0.386,0.402,0.405,0.368,0.394,0.963

# From the supplement of paper PMC10307832
